According to PubChem BioAssay AID1963962 (Molecular Pharmacology Branch, DTP, NCI, 2024):

System: 967376-340-R-J2-PDC multicell spheroid viability
Assay: Anticancer human tumor 967376-340-R-J2-PDC patient-derived colon adenocarcinoma cell line growth inhibition [PI3K]
Settings: for viability, T/C: stronger effect = lower value; active = viability on the fitted dose curve at most 10% of control; inactive = the rest
Excerpt: Combinatorial screen of targeted agents with the PI3K inhibitors inavolisib, alpelisib, duvelisib, and copanlisib in multi-cell type tumor spheroids
A high-throughput screen of multi-cell type tumor spheroids was designed to identify active combinations of targeted small molecules and PI3K pathway inhibitors. Complex spheroids include a stromal component modeled by human endothelial cells (HUVEC) and fibroblasts modeled by human mesenchymal stem cells (MSCs). The concentration ranges selected for each drug and investigational agent were based upon clinically achievable concentrations if the clinical Cmax of the agent was known.
Compounds. The drugs and investigational agents: inavolisib (NSC800729), alpelisib (NSC765974), duvelisib (NSC772469), copanlisib (NSC816437), ipatasertib (NSC767898), afuresertib (NSC778305), talazoparib (NSC767125), sapanisertib (NSC764658), selumetinib (NSC741078), tovorafenib (DAY101, NSC766906), vemurafenib (NSC761431), ravoxertinib (NSC781343), sotorasib (NSC818433), MRTX1133 (NSC 836407), abemaciclib (NSC 768073), palbociclib (NSC758247), venetoclax (NSC 766270), SY5609 (NSC837396), enzalutamide (NSC755605), and darolutamide (NSC825331), were obtained from the National Cancer Institute (NCI) Developmental Therapeutics Program Chemical Repository. The FDA-approved anticancer drug set is available from the NCI Developmental Therapeutics Program. […] The stock solutions were prepared in dimethyl sulfoxide (DMSO, Sigma-Aldrich, St. Louis, MO, cat. D2650) at 800-fold the tested concentration and stored at -70 degrees C prior to their use. All drugs and investigational agents were tested over a range starting from a high concentration at or near the clinical Cmax and decreasing in half-log increments. If the clinical Cmax for an agent had not been determined, the highest concentration tested was 10 microM.
Cell Culture. All cells were maintained in an incubator at 37 degrees C and 5% CO2 with 95% humidity. The PDC lines were cultured according to standard operating procedures established by the NCI PDMR (https://pdmr.cancer.gov/sops/default.htm). All PDCs were thawed and cultured in Matrigel-coated flasks prepared with a working solution of 1X Ham's F-12 nutrient mix, without supplementation (Invitrogen, Waltham, MA, cat. 11765054), 100 U/mL penicillin-streptomycin (Invitrogen, cat. 15140122), and 2.5% Matrigel (Corning Inc., Corning, NY, cat. 354248) for the first three passages. The 354836-022-R-J1-PDC, 475296-252-R-J1-PDC, and 997726-040-R-J2-PDC lines were cultured in 6A media, which includes advanced DMEM/F-12 (Thermo Fisher Scientific, cat. 12634028), 10 mM HEPES (Thermo Fisher Scientific, cat. 15630080), 1X GlutaMAX supplement (Thermo Fisher Scientific, cat. 35050061), 0.1 mg/mL primocin (InvivoGen, San Diego, CA, cat. ant-pm-2), 10% defined fetal bovine serum, heat inactivated (HyClone Laboratories Inc., Logan, UT, cat. SH30070.03HI), 50% L-WRN conditioned media (ATCC, cat. CRL-3276), 1.25 mM N-Acetyl-L-cysteine (Sigma-Aldrich, cat. A9165), 10 mM nicotinamide (Sigma-Aldrich, cat. N0636), 1X B-27 supplement (Thermo Fisher Scientific, cat. 17504044), 1X N-2 supplement (Thermo Fisher Scientific, cat. 17502048), and 10 microM Y-27632 dihydrochloride (Tocris Bioscience, Bristol, United Kingdom, cat. 1254). The 624824-186-R-J2-PDC line was cultured in 6C/Colon 1B media, which includes all 6A media components plus 50 ng/mL human EGF recombinant protein (Thermo Fisher Scientific, cat. PHG0311). […]

[1] = curve of first compound, second compound 0.00316 µM
[2] = curve of first compound, second compound 0.01 µM
[3] = curve of first compound, second compound 0.0316 µM
[4] = curve of first compound, second compound 0.1 µM
[5] = curve of first compound, second compound 0.316 µM
[6] = curve of first compound, second compound 1 µM
[7] = second compound 0.00316 µM, first compound 0.000316 µM
[8] = second compound 0.00316 µM, first compound 0.001 µM
[9] = second compound 0.00316 µM, first compound 0.00316 µM
[10] = second compound 0.00316 µM, first compound 0.01 µM
[11] = second compound 0.00316 µM, first compound 0.0316 µM
[12] = second compound 0.00316 µM, first compound 0.1 µM
[13] = second compound 0.01 µM, first compound 0.000316 µM
[14] = second compound 0.01 µM, first compound 0.001 µM
[15] = second compound 0.01 µM, first compound 0.00316 µM
[16] = second compound 0.01 µM, first compound 0.01 µM
[17] = second compound 0.01 µM, first compound 0.0316 µM
[18] = second compound 0.01 µM, first compound 0.1 µM
[19] = second compound 0.0316 µM, first compound 0.000316 µM
[20] = second compound 0.0316 µM, first compound 0.001 µM
[21] = second compound 0.0316 µM, first compound 0.00316 µM
[22] = second compound 0.0316 µM, first compound 0.01 µM
[23] = second compound 0.0316 µM, first compound 0.0316 µM
[24] = second compound 0.0316 µM, first compound 0.1 µM
[25] = second compound 0.1 µM, first compound 0.000316 µM
[26] = second compound 0.1 µM, first compound 0.001 µM
[27] = second compound 0.1 µM, first compound 0.00316 µM
[28] = second compound 0.1 µM, first compound 0.01 µM
[29] = second compound 0.1 µM, first compound 0.0316 µM
[30] = second compound 0.1 µM, first compound 0.1 µM
[31] = second compound 0.316 µM, first compound 0.000316 µM
[32] = second compound 0.316 µM, first compound 0.001 µM
[33] = second compound 0.316 µM, first compound 0.00316 µM
[34] = second compound 0.316 µM, first compound 0.01 µM
[35] = second compound 0.316 µM, first compound 0.0316 µM
[36] = second compound 0.316 µM, first compound 0.1 µM
[37] = second compound 1 µM, first compound 0.000316 µM
[38] = second compound 1 µM, first compound 0.001 µM
[39] = second compound 1 µM, first compound 0.00316 µM
[40] = second compound 1 µM, first compound 0.01 µM
[41] = second compound 1 µM, first compound 0.0316 µM
[42] = second compound 1 µM, first compound 0.1 µM
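Also: spheroids exposed to agents for 7 days before read-out.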
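For viability, T/C in this document: luminescence used as surrogate of cell viability.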

CC(=O)c1c(C)c2cnc(Nc3ccc(N4CCNCC4)cn3)nc2n(C2CCCC2)c1=O + CC(Nc1ccc2c(c1)OCCn1cc(N3C(=O)OCC3C(F)F)nc1-2)C(N)=O
> 100 nM: IC50 [1] | IC50 [2] | IC50 [3] | IC50 [4] | IC50 [5] | IC50 [6]
inactive: viability, T/C [7] 111% | viability, T/C [8] 79.3% | viability, T/C [9] 93.8% | viability, T/C [10] 102% | viability, T/C [11] 114% | viability, T/C [12] 87.4% | viability, T/C [13] 100% | viability, T/C [14] 101% | viability, T/C [15] 96.4% | viability, T/C [16] 93% | viability, T/C [17] 94.7% | viability, T/C [18] 75.8% | viability, T/C [19] 92.7% | viability, T/C [20] 88.4% | viability, T/C [21] 70.7% | viability, T/C [22] 117% | viability, T/C [23] 91.3% | viability, T/C [24] 84.7% | viability, T/C [25] 87.9% | viability, T/C [26] 78.8% | viability, T/C [27] 96.3% | viability, T/C [28] 64.3% | viability, T/C [29] 90.2% | viability, T/C [30] 79.7% | viability, T/C [31] 64.3% | viability, T/C [32] 74.7% | viability, T/C [33] 72.8% | viability, T/C [34] 72.1% | viability, T/C [35] 72.9% | viability, T/C [36] 67.8% | viability, T/C [37] 65% | viability, T/C [38] 64.2% | viability, T/C [39] 77.8% | viability, T/C [40] 55.7% | viability, T/C [41] 61.6% | viability, T/C [42] 50.9%

CC(=O)c1c(C)c2cnc(Nc3ccc(N4CCNCC4)cn3)nc2n(C2CCCC2)c1=O + COc1c(OCCCN2CCOCC2)ccc2c3n(c(=NC(=O)c4cnc(N)nc4)nc12)CCN3
> 100 nM: IC50 [1] | IC50 [2] | IC50 [3] | IC50 [4]
inactive: viability, T/C [7] 92.9% | viability, T/C [8] 95.8% | viability, T/C [9] 94.7% | viability, T/C [10] 88.5% | viability, T/C [11] 87.5% | viability, T/C [12] 74.7% | viability, T/C [13] 89.8% | viability, T/C [14] 99.5% | viability, T/C [15] 92.2% | viability, T/C [16] 101% | viability, T/C [17] 78% | viability, T/C [18] 60.9% | viability, T/C [19] 72.4% | viability, T/C [20] 79.9% | viability, T/C [21] 73.2% | viability, T/C [22] 73.8% | viability, T/C [23] 86.3% | viability, T/C [24] 74.3% | viability, T/C [25] 64.2% | viability, T/C [26] 49.7% | viability, T/C [27] 64.5% | viability, T/C [28] 59.3% | viability, T/C [29] 62.1% | viability, T/C [30] 54.6% | viability, T/C [31] 46.7% | viability, T/C [32] 39% | viability, T/C [33] 37% | viability, T/C [34] 42.2% | viability, T/C [35] 45.5% | viability, T/C [36] 44.7% | viability, T/C [37] 41.5% | viability, T/C [38] 37.3% | viability, T/C [39] 34.8% | viability, T/C [40] 33.5% | viability, T/C [41] 34.3% | viability, T/C [42] 27.9%
< 0.316 nM: IC50 [5] | IC50 [6]

CC(Cn1ccc(-c2ccc(C#N)c(Cl)c2)n1)NC(=O)c1cc(C(C)O)[nH]n1 (stereo not given)
> 10000 nM: IC50 (curve of compound)
inactive: viability, T/C (compound 0.0316 µM) 105% [middle of 4 runs] | viability, T/C (compound 0.1 µM) 99.6% [middle of 4 runs] | viability, T/C (compound 0.316 µM) 101% [middle of 4 runs] | viability, T/C (compound 1 µM) 101% [middle of 4 runs] | viability, T/C (compound 3.16 µM) 103% [middle of 4 runs]
